Results from the NIST ThermoML archive (doi:10.1021/je3013205).

Test: xn = mol fraction of the nth substance listed
Conditions: 101 kPa, Liquid, Vibrating tube method

NCCO [2-aminoethan-1-ol] + CC(C)O
mass density [kg/m3]
Conditions | x2 = 0 | x2 = 0.1001 | x2 = 0.1999 | x2 = 0.3002 | x2 = 0.4001 | x2 = 0.5001 | x2 = 0.5999 | x2 = 0.7 | x2 = 0.8002 | x2 = 0.8999
283.15 K | 1024.11 | 999.024 | 974.32 | 949.806 | 925.587 | 902.006 | 879.054 | 856.17 | 834.572 | 813.792
293.15 K | 1016.23 | 990.993 | 966.334 | 941.791 | 917.446 | 893.95 | 870.943 | 848.018 | 826.391 | 805.582
303.15 K | 1008.32 | 982.903 | 958.311 | 933.723 | 909.315 | 885.794 | 862.727 | 839.735 | 818.066 | 797.19
313.15 K | 1000.37 | 974.928 | 950.234 | 925.597 | 901.039 | 877.533 | 854.388 | 831.308 | 809.555 | 788.57
323.15 K | 992.364 | 966.92 | 942.073 | 917.361 | 892.673 | 869.138 | 845.897 | 822.707 | 800.81 | 779.665
333.15 K | 984.301 | 958.72 | 933.821 | 909.018 | 884.471 | 860.597 | 837.216 | 813.881 | 791.784 | 770.393
343.15 K | 976.153 | 950.596 | 925.458 | 900.544 | 875.887 | 851.867 | 828.323 | 804.773 | 782.457 | 760.722

NCCO [2-aminoethan-1-ol] + CO
mass density [kg/m3]
Conditions | x2 = 0 | x2 = 0.0999 | x2 = 0.2 | x2 = 0.3001 | x2 = 0.4 | x2 = 0.5 | x2 = 0.6001 | x2 = 0.7026 | x2 = 0.7998 | x2 = 0.8999
283.15 K | 1024.11 | 1012.96 | 1000.24 | 985.644 | 969.73 | 951.484 | 930.19 | 904.556 | 875.763 | 841.316
293.15 K | 1016.23 | 1005 | 992.199 | 977.53 | 961.548 | 943.204 | 921.795 | 895.978 | 867.002 | 832.282
303.15 K | 1008.32 | 997.005 | 984.108 | 969.37 | 953.296 | 934.844 | 913.321 | 887.345 | 858.177 | 823.2
313.15 K | 1000.37 | 988.961 | 975.96 | 961.142 | 944.973 | 926.41 | 904.767 | 878.633 | 849.26 | 814.016
323.15 K | 992.364 | 980.886 | 967.788 | 952.855 | 936.722 | 917.891 | 896.116 | 869.812 | 840.244 | 804.724
333.15 K | 984.301 | 972.713 | 959.607 | 944.613 | 928.096 | 909.268 | 887.352 | 860.859 | 831.072 | 795.281

NCCO [2-aminoethan-1-ol] + OCCO
mass density [kg/m3]
Conditions | x2 = 0 | x2 = 0.1002 | x2 = 0.2 | x2 = 0.2998 | x2 = 0.3999 | x2 = 0.5001 | x2 = 0.5999 | x2 = 0.7 | x2 = 0.8002 | x2 = 0.8999
283.15 K | 1024.11 | 1035.45 | 1046.35 | 1056.77 | 1066.86 | 1076.47 | 1085.82 | 1094.87 | 1103.84 | 1112.47
293.15 K | 1016.23 | 1027.68 | 1038.7 | 1049.24 | 1059.48 | 1069.16 | 1078.59 | 1087.73 | 1096.76 | 1105.44
303.15 K | 1008.32 | 1019.88 | 1031.01 | 1041.67 | 1052.04 | 1061.82 | 1071.33 | 1080.56 | 1089.64 | 1098.37
313.15 K | 1000.37 | 1012.03 | 1023.26 | 1034.05 | 1044.53 | 1054.42 | 1064.02 | 1073.32 | 1082.46 | 1091.24
323.15 K | 992.364 | 1004.13 | 1015.46 | 1026.35 | 1036.96 | 1046.93 | 1056.62 | 1066.01 | 1075.21 | 1084.05
333.15 K | 984.301 | 996.181 | 1007.58 | 1018.58 | 1029.3 | 1039.37 | 1049.14 | 1058.6 | 1067.87 | 1076.77
343.15 K | 976.153 | 988.118 | 999.618 | 1010.71 | 1021.54 | 1031.7 | 1041.55 | 1051.09 | 1060.42 | 1069.37

CO [methanol] + NCCO
x1 = 1
Conditions | mass density [kg/m3]
283.15 K | 801.254
293.15 K | 791.866
303.15 K | 782.43
313.15 K | 772.902
323.15 K | 763.244
333.15 K | 753.389

CO [methanol] + NCCOCCO
x1 = 1
Conditions | mass density [kg/m3]
283.15 K | 801.254
293.15 K | 791.866
303.15 K | 782.43
313.15 K | 772.902
323.15 K | 763.244
333.15 K | 753.389

CC(C)O [propan-2-ol] + NCCO
x1 = 1
Conditions | mass density [kg/m3]
283.15 K | 794.005
293.15 K | 785.764
303.15 K | 777.284
313.15 K | 768.476
323.15 K | 759.309
333.15 K | 749.679
343.15 K | 739.528

CC(C)O [propan-2-ol] + NCCOCCO
x1 = 1
Conditions | mass density [kg/m3]
283.15 K | 794.005
293.15 K | 785.764
303.15 K | 777.284
313.15 K | 768.476
323.15 K | 759.309
333.15 K | 749.679
343.15 K | 739.528
